Results as given in ChEMBL document CHEMBL1145867, “Muraymycins, novel peptidoglycan biosynthesis inhibitors: synthesis and SAR of their analogues” (2003).
In brackets after ≈: the same amount, converted by molar mass. Activity calls are given as the source filed them. The calls are words filed in the database; no cut-off is given here.

What was measured:
Staphylococcus aureus [1] = experiment: In vitro antimicrobial activity against Staphylococcus aureus GC 2216 at 32 ug/ml soluble peptidoglycan; type: functional
Staphylococcus sp. [2] = experiment: In vitro antimicrobial activity against CNS GC 4547 at 32 ug/ml soluble peptidoglycan; type: functional
Staphylococcus aureus [3] = experiment: In vitro antimicrobial activity against Staphylococcus aureus GC 4536 at 32 ug/ml soluble peptidoglycan; type: functional
Candida albicans [4] = experiment: In vitro antimicrobial activity against Candida albicans […] at 32 ug/ml soluble peptidoglycan; type: functional
Staphylococcus sp. [5] = experiment: In vitro antimicrobial activity against Coagulase-negative staphylococcus GC 4538 at 32 ug/ml soluble peptidoglycan; type: functional
Staphylococcus aureus [6] = experiment: In vitro antimicrobial activity against Staphylococcus aureus GC 1131 at 32 ug/ml soluble peptidoglycan; type: functional
[7] = The inhibitory activity of compound against MraY or MurG at 25 ug/mL; No inhibition
Enterococcus faecalis [8] = experiment: In vitro antimicrobial activity against Enterococcus faecalis GC 4555 at 32 ug/ml soluble peptidoglycan; type: functional
Bacteria = experiment: In vitro antimicrobial activity against gram-negative organisms (10)
Staphylococcus sp. [9] = experiment: In vitro antimicrobial activity against CNS GC 4538 at 32 ug/ml soluble peptidoglycan; type: functional
[10] = The inhibitory activity of compound against MraY or MurG at 12.5 ug/mL; No inhibition
[11] = The inhibitory activity of compound against MraY or MurG at 50 ug/mL; No inhibition
[12] = The inhibitory activity of compound against MraY or MurG at 6.25 ug/mL; No inhibition
Enterococcus faecalis [13] = experiment: In vitro antimicrobial activity against Enterococcus faecalis GC 842 at 32 ug/ml soluble peptidoglycan; type: functional
Enterococcus faecalis [14] = experiment: In vitro antimicrobial activity against Enterococcus faecalis GC 2242 at 32 ug/ml soluble peptidoglycan; type: functional
[15] = The inhibitory activity of compound against MraY or MurG at 100 ug/mL; Inhibit
Staphylococcus sp. [16] = experiment: In vitro antimicrobial activity against CNS GC 4538 at 10.7 ug/ml soluble peptidoglycan; type: functional
Staphylococcus aureus [17] = experiment: In vitro antimicrobial activity against Staphylococcus aureus GC 1131 at 10.7 ug/ml soluble peptidoglycan; type: functional
[18] = The inhibitory activity of compound against MraY or MurG at 6.25 ug/mL; No Inhibition
[19] = The inhibitory activity of compound against MraY or MurG at 12.5 ug/mL; No Inhibition
Staphylococcus aureus [20] = experiment: In vitro antimicrobial activity against Staphylococcus aureus GC 2216 at 10.7 ug/ml soluble peptidoglycan; type: functional
Staphylococcus sp. [21] = experiment: In vitro antimicrobial activity against Coagulase-negative staphylococcus GC 4538 at 10.7 ug/ml soluble peptidoglycan; type: functional
Staphylococcus aureus [22] = experiment: In vitro antimicrobial activity against Staphylococcus aureus GC 4536 at 10.7 ug/ml soluble peptidoglycan; type: functional
Enterococcus faecalis [23] = experiment: In vitro antimicrobial activity against Enterococcus faecalis GC 2242 at 10.7 ug/ml soluble peptidoglycan; type: functional
Enterococcus faecalis [24] = experiment: In vitro antimicrobial activity against Enterococcus faecalis GC 4555 at 10.7 ug/ml soluble peptidoglycan; type: functional
[25] = The inhibitory activity of compound against MraY or MurG at 50 ug/mL; Inhibit
[26] = The inhibitory activity of compound against MraY or MurG at 25 ug/mL; No Inhibition
Enterococcus faecalis [27] = experiment: In vitro antimicrobial activity against Enterococcus faecalis GC 842 at 10.7 ug/ml soluble peptidoglycan; type: functional
Candida albicans [28] = experiment: In vitro antimicrobial activity against Candida albicans […] at 10.7 ug/ml soluble peptidoglycan; type: functional
Staphylococcus sp. [29] = experiment: In vitro antimicrobial activity against CNS GC 4547 at 10.7 ug/mL soluble peptidoglycan; type: functional
[30] = The inhibitory activity of compound against MraY or MurG at 12.5 ug/mL; Inhibit
[31] = The inhibitory activity of compound against MraY or MurG at 6.25 ug/mL; Inhibit
[32] = The inhibitory activity of compound against MraY or MurG at 25 ug/mL; Inhibit

| MIC (Staphylococcus aureus [1]) [µg/mL] | MIC (Staphylococcus sp. [2]) [µg/mL] | MIC (Staphylococcus aureus [3]) [µg/mL] | MIC (Candida albicans [4]) [µg/mL] | MIC (Staphylococcus sp. [5]) [µg/mL] | MIC (Staphylococcus aureus [6]) [µg/mL] | MIC (Enterococcus faecalis [8]) [µg/mL] | MIC (Bacteria) [µg/mL] | MIC (Staphylococcus sp. [9]) [µg/mL] | MIC (Enterococcus faecalis [13]) [µg/mL] | MIC (Enterococcus faecalis [14]) [µg/mL] | Inhibitory activity [15] | Inhibitory activity [25] | Structure (SMILES) | further results |
| --- | --- | --- | --- | --- | --- | --- | --- | --- | --- | --- | --- | --- | --- | --- |
| 4 (≈ 4.54 µM) | 8 (≈ 9.09 µM) | 4 (≈ 4.54 µM) | > 128 | 4 (≈ 4.54 µM) | 8 (≈ 9.09 µM) | 4 (≈ 4.54 µM) | > 128 | 4 (≈ 4.54 µM) | 4 (≈ 4.54 µM) | 8 (≈ 9.09 µM) | Inhibit | – | COc1ccc(Cn2c(=O)ccn([C@@H]3OC([C@H](O)[C@H](NCCCNC(=O)[C@H](N)C(C)O)C(=O)OC(C)(C)C)[C@@H](O[Si](C)(C)C(C)(C)C)[C@H]3O[Si](C)(C)C(C)(C)C)c2=O)cc1 (stereo partly drawn) | Inhibitory activity [7]: inactive; Inhibitory activity [10]: inactive; Inhibitory activity [11]: inactive; Inhibitory activity [12]: inactive |
| – | – | – | – | – | – | – | > 128 | – | – | – | Inhibit | Inhibit | COc1ccc(Cn2c(=O)ccn([C@@H]3OC([C@@H](O)[C@H](NCCCNC(=O)[C@H](N)C(O)C(C)C)C(=O)OC(C)(C)C)[C@@H](O[Si](C)(C)C(C)(C)C)[C@H]3O[Si](C)(C)C(C)(C)C)c2=O)cc1 (stereo partly drawn) | MIC (Staphylococcus sp. [16]): 128 µg/mL (≈ 141 µM); MIC (Staphylococcus aureus [17]): 128 µg/mL (≈ 141 µM); Inhibitory activity [18]: inactive; Inhibitory activity [19]: inactive; MIC (Staphylococcus aureus [20]): 128 µg/mL (≈ 141 µM); MIC (Staphylococcus sp. [21]): 128 µg/mL (≈ 141 µM); MIC (Staphylococcus aureus [22]): 128 µg/mL (≈ 141 µM); MIC (Enterococcus faecalis [23]): 128 µg/mL (≈ 141 µM); MIC (Enterococcus faecalis [24]): 128 µg/mL (≈ 141 µM); Inhibitory activity [26]: inactive; MIC (Enterococcus faecalis [27]): > 128 µg/mL; MIC (Candida albicans [28]): 128 µg/mL (≈ 141 µM); MIC (Staphylococcus sp. [29]): 8 µg/mL (≈ 8.81 µM) |
| – | – | – | – | – | – | – | – | – | – | – | Inhibit | Inhibit | COC1C(O)[C@@H](OC(C(NCCCNC(=O)[C@H](NC(=O)[C@@H](NC(=O)N[C@H](C(=O)O)C(C)C)C2CCN=C(N)N2)C(O)C(C)C)C(=O)O)[C@H]2O[C@@H](n3ccc(=O)[nH]c3=O)[C@H](O)[C@@H]2O)O[C@H]1CN (stereo partly drawn) | Inhibitory activity [30]: Inhibit; Inhibitory activity [31]: Inhibit; Inhibitory activity [32]: Inhibit |
| > 128 | > 128 | > 128 | 128 (≈ 126 µM) | > 128 | > 128 | > 128 | > 128 | > 128 | 128 (≈ 126 µM) | > 128 | – | – | COc1ccc(Cn2c(=O)ccn([C@@H]3OC([C@H](O)[C@H](NCCCNC(=O)[C@H](NC(=O)OCc4ccccc4)C(C)O)C(=O)OC(C)(C)C)[C@@H](O[Si](C)(C)C(C)(C)C)[C@H]3O[Si](C)(C)C(C)(C)C)c2=O)cc1 (stereo partly drawn) | – |
